For nine compounds, mass density, speed of sound and refractive index results are on record in the NIST ThermoML archive (doi:10.1021/je100362p).

Several values for one entry are separate records, joined by “and”; a condition that tells them apart may be missing. Identical values can stand only once. Numbers after ± are expanded uncertainties.

The conditions of data set [1]: 101 kPa, Liquid; for speed of sound: Sing-around technique in a fixed-path interferometer.
The nature of data set [2]: refractive index (Na D-line) (dimensionless). Conditions: 101.33 kPa, Liquid, Standard Abbe refractometry.
The nature of data set [3]: xn = mol fraction of the nth substance listed. Conditions: 101 kPa, Liquid, x2 = 0; for speed of sound: Sing-around technique in a fixed-path interferometer.
A short description of data set [4]: refractive index (Na D-line) (dimensionless); xn = mol fraction of the nth substance listed. Conditions: 101 kPa, Liquid, Standard Abbe refractometry, x2 = 0.

`Cc1ccccc1O` [2-methylphenol]: the mass density (as a rule, mass per unit of volume) in data set [1] (298.15 K) was determined as 1042.32 ± 0.27 kg/m3; in data set [1] (303.15 K), 1036.94 ± 0.26 kg/m3; in data set [1] (308.15 K), 1031.55 ± 0.25 kg/m3. In addition, the speed of sound (commonly how fast a sound wave travels through the sample) in data set [1] (298.15 K) is recorded as 1504.6 ± 1.1 m/s; in data set [1] (303.15 K) it was 1487.4 ± 1.1 m/s; in data set [1] (308.15 K) it was 1470.3 ± 1 m/s. The refractive index – broadly, a measure of how strongly the sample bends light – in data set [2] (298.15 K) is given as 1.544 ± 0.0007; in data set [2] (303.15 K) it was 1.54099 ± 0.00078; in data set [2] (308.15 K) it was 1.53699 ± 0.00087.
Consider `Cc1cccc(O)c1` [3-methylphenol], for which the mass density stood at 1030.05 ± 0.25 kg/m3 in data set [1] (298.15 K), 1026.09 ± 0.24 kg/m3 in data set [1] (303.15 K) and 1022.12 ± 0.23 kg/m3 in data set [1] (308.15 K). For the same compound, the figures for the speed of sound in data set [1] (298.15 K), in data set [1] (303.15 K) and in data set [1] (308.15 K) were 1480.9 ± 1 m/s, 1465.2 ± 1 m/s and 1449.6 ± 1 m/s, respectively. In addition, the values for the refractive index in data set [2] (298.15 K), in data set [2] (303.15 K) and in data set [2] (308.15 K) were 1.538 ± 0.0007, 1.535 ± 0.0007 and 1.532 ± 0.0007, respectively.
Consider `Cc1ccc(O)cc1` [4-methylphenol], for which the values for the mass density in data set [1] (298.15 K), in data set [1] (303.15 K) and in data set [1] (308.15 K) were 1030.14 ± 0.49 kg/m3, 1026.28 ± 0.48 kg/m3 and 1022.38 ± 0.47 kg/m3, respectively. The speed of sound in data set [1] (298.15 K) turned out to be 1486.4 ± 1.4 m/s; in data set [1] (303.15 K), 1470.7 ± 1.4 m/s; in data set [1] (308.15 K), 1455 ± 1.4 m/s. The refractive index in data set [2] (298.15 K) amounted to 1.537 ± 0.00072; in data set [2] (303.15 K), 1.534 ± 0.00072; in data set [2] (308.15 K), 1.531 ± 0.00072.
Turning to `COc1ccccc1` [anisole], the mass density in data set [1] (298.15 K) worked out at 989.145 ± 0.25 kg/m3; in data set [1] (303.15 K), 984.433 ± 0.26 kg/m3; in data set [1] (308.15 K), 979.712 ± 0.27 kg/m3. The speed of sound in data set [1] (298.15 K) was 1406.9 ± 1.1 m/s; in data set [1] (303.15 K), 1386.8 ± 1.1 m/s; in data set [1] (308.15 K) it was 1366.5 ± 1.1 m/s. Further, the refractive index in data set [2] (298.15 K) came out at 1.51495 ± 0.00041; in data set [2] (303.15 K), 1.51395 ± 0.00054; in data set [2] (308.15 K) it was 1.51095 ± 0.0007.
`CCCCCCCCCCO` [decan-1-ol]: the mass density in data set [1] (298.15 K) is given as 826.526 ± 0.55 kg/m3; in data set [1] (303.15 K), 823.101 ± 0.56 kg/m3; in data set [1] (308.15 K) it was 819.671 ± 0.57 kg/m3. In addition, the speed of sound in data set [1] (298.15 K) was determined as 1379.4 ± 1.1 m/s; in data set [1] (303.15 K), 1362.3 ± 1.1 m/s; in data set [1] (308.15 K) it was 1345.6 ± 1.1 m/s. The refractive index in data set [2] (298.15 K) is 1.43456 ± 0.00054; in data set [2] (303.15 K) it was 1.43256 ± 0.00054 and 1.43266 ± 0.00054; in data set [2] (308.15 K), 1.4305 ± 0.00055.
As for `CCCCCCCCCCO` [decan-1-ol] + COc1ccccc1, the speed of sound in data set [3] (298.15 K) was 1379.4 ± 1.1 m/s; in data set [3] (303.15 K) it was 1362.3 ± 1.1 m/s; in data set [3] (308.15 K), 1345.6 ± 1.1 m/s. Moreover, the values for the mass density in data set [3] (298.15 K), in data set [3] (303.15 K) and in data set [3] (308.15 K) were 826.526 ± 0.55 kg/m3, 823.101 ± 0.56 kg/m3 and 819.671 ± 0.57 kg/m3, respectively. Besides, the refractive index is on record as 1.43456 ± 0.00054 in data set [4] (298.15 K), 1.43256 ± 0.00054 in data set [4] (303.15 K) and 1.4305 ± 0.00055 in data set [4] (308.15 K).
As to `CCCCCCCCCCO` [decan-1-ol] + Cc1ccc(O)cc1, the speed of sound in data set [3] (298.15 K) is 1379.4 ± 1.1 m/s; in data set [3] (303.15 K) it was 1362.3 ± 1.1 m/s; in data set [3] (308.15 K) it was 1345.6 ± 1.1 m/s. Further, the values for the mass density in data set [3] (298.15 K), in data set [3] (303.15 K) and in data set [3] (308.15 K) were 826.526 ± 0.55 kg/m3, 823.101 ± 0.56 kg/m3 and 819.671 ± 0.57 kg/m3, respectively. Besides, the refractive index in data set [4] (298.15 K) came out at 1.43456 ± 0.00054; in data set [4] (303.15 K), 1.43256 ± 0.00054; in data set [4] (308.15 K), 1.4305 ± 0.00055.
Take `CCCCCCCCCCO` [decan-1-ol] + Cc1cccc(O)c1: the speed of sound in data set [3] (298.15 K) is 1379.4 ± 1.1 m/s; in data set [3] (303.15 K) it was 1362.3 ± 1.1 m/s; in data set [3] (308.15 K), 1345.6 ± 1.1 m/s. The values for the mass density in data set [3] (298.15 K), in data set [3] (303.15 K) and in data set [3] (308.15 K) were 826.526 ± 0.55 kg/m3, 823.101 ± 0.56 kg/m3 and 819.671 ± 0.57 kg/m3, respectively. Besides, the refractive index in data set [4] (298.15 K) was 1.43456 ± 0.00054; in data set [4] (303.15 K), 1.43256 ± 0.00054; in data set [4] (308.15 K), 1.4305 ± 0.00055.
`CCCCCCCCCCO` [decan-1-ol] + Cc1ccccc1O: the speed of sound in data set [3] (298.15 K) was determined as 1379.4 ± 1.1 m/s; in data set [3] (303.15 K) it was 1362.3 ± 1.1 m/s; in data set [3] (308.15 K), 1345.6 ± 1.1 m/s. The mass density in data set [3] (298.15 K) is given as 826.526 ± 0.55 kg/m3; in data set [3] (303.15 K), 823.101 ± 0.56 kg/m3; in data set [3] (308.15 K), 819.671 ± 0.57 kg/m3. Also, the refractive index in data set [4] (298.15 K) was determined as 1.43456 ± 0.00052; in data set [4] (303.15 K), 1.43266 ± 0.00054; in data set [4] (308.15 K) it was 1.4305 ± 0.00056.
